Data taken from the supplement of paper PMC10307832.

Legend:
Experiment in all cases: relative viability (nuclei count vs DMSO), 5 days (fraction); higher = more cells survive
[1] = compound: C1/C(=C\C2=CC=CS2)/C(=O)/C(=C/C3=CC=CS3)/C1 + CC(=O)c1c(C)c2cnc(Nc3ccc(N4CCNCC4)cn3)nc2n(C2CCCC2)c1=O [Palbociclib] (partner 0.5 µM)
Method in brief: (§1)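 Lung cancer cell lines in 1536-well plates got either a single drug or a fixed anchor-drug dose together with five library-drug doses (not always all listed) in √10 steps, by pin tool, on the day after seeding. Nuclei were counted after 5 days, and relative viability is the treated-to-vehicle ratio of nuclei counts. Values are medians of duplicate plates.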

[2] = compound: C1=CC(=CC=C1C2=CC(=C(S2)NC(=O)N)C(=O)N)F [TPCA-1] + Cc1cc(Nc2cc(N3CCN(C)CC3)nc(Sc3ccc(NC(=O)C4CC4)cc3)n2)n[nH]1 [Tozasertib] (partner 0.1 µM)
Method in brief: as §1

[3] = compound: C[C@]12O[C@H](C[C@]1(O)CO)n1c3ccccc3c3c4c(c5c6ccccc6n2c5c31)CNC4=O [Lestaurtinib] + CC1(C)CCC(c2ccc(Cl)cc2)=C(CN2CCN(c3ccc(C(=O)NS(=O)(=O)c4ccc(N[C@H](CCN5CCOCC5)CSc5ccccc5)c(S(=O)(=O)C(F)(F)F)c4)cc3)CC2)C1 [Navitoclax] (partner 0.5 µM)
Method in brief: as §1

[4] = compound: C[C@]12O[C@H](C[C@]1(O)CO)n1c3ccccc3c3c4c(c5c6ccccc6n2c5c31)CNC4=O [Lestaurtinib] + NC(=O)Nc1cc(-c2cccc(F)c2)sc1C(=O)N[C@H]1CCCNC1 [AZD7762] (partner 0.2 µM)
Method in brief: as §1

Cell Line	relative viability ([1]; first compound 0.2 µM)	relative viability ([1]; first compound 0.6325 µM)	relative viability ([1]; first compound 2 µM)	relative viability ([1]; first compound 6.325 µM)	relative viability ([1]; first compound 20 µM)	relative viability ([2]; first compound 0.04 µM)	relative viability ([2]; first compound 0.1265 µM)	relative viability ([2]; first compound 0.4 µM)	relative viability ([2]; first compound 1.265 µM)	relative viability ([2]; first compound 4 µM)	relative viability ([3]; first compound 0.005 µM)	relative viability ([3]; first compound 0.01581 µM)	relative viability ([3]; first compound 0.05 µM)	relative viability ([3]; first compound 0.1581 µM)	relative viability ([3]; first compound 0.5 µM)	relative viability ([4]; first compound 0.005 µM)	relative viability ([4]; first compound 0.01581 µM)	relative viability ([4]; first compound 0.05 µM)	relative viability ([4]; first compound 0.1581 µM)	relative viability ([4]; first compound 0.5 µM)
201T	0.348	0.37	0.349	0.353	0.348	0.958	0.924	1.05	0.976	0.636	1.21	1.22	1.29	1.28	1.18	0.589	0.656	0.53	0.92	0.776
A549											1.28	1.27	0.948	0.615	0.0764					
A-427	0.546	0.552	0.519	0.481	0.5	0.231	0.211	0.192	0.161	0.147	1.04	0.858	0.914	0.455	0.329	0.712	0.755	0.645	0.433	0.215
ABC-1	0.707	0.614	0.886	0.64	0.513	0.153	0.199	0.137	0.163	0.142						0.59	1.09	0.692	0.76	0.593
BEN	0.504	0.531	0.511	0.411	0.518	0.548		0.526	0.628	0.403	0.0676	0.07	0.0559	0.0652	0.0525	0.674	0.818	0.634	0.625	0.341
CAL-12T	0.531	0.654	0.555	0.49	0.489	0.327	0.299	0.257	0.236	0.206	1.25	1.45	1.08	1.2	0.686	0.573	0.813	0.557	0.599	0.54
COR-L23	0.333	0.283	0.338	0.294	0.297	0.155	0.168	0.18	0.134	0.129	1.14	1.12		0.62	0.184					
COR-L 105	0.379	0.405	0.443	0.43	0.401	0.398	0.355	0.309	0.349	0.335	0.803	0.746	0.595	0.643	0.322					
